Laboratory results taken from article PMC11844072, “Novel 5,6-dichlorobenzimidazole derivatives as dual BRAFWT and BRAFV600E inhibitors: design, synthesis, anti-cancer activity and molecular dynamics simulations” (BMC Chemistry, 2025).

What was measured:
COLO 205 = test: NCI 60 single concentration growth inhibition; type: cell-based, human; details: Homo sapiens, COLO 205, Colon cancer, read-out: GI%
Outline: (§1)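 One-concentration growth inhibition used 10 µM over 48 h in RPMI 1640/5% FBS, with sulforhodamine B protein staining as the end point. Percent growth is expressed relative to untreated control cells.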

DU-145 = test: NCI 60 single concentration growth inhibition; type: cell-based, human; details: Homo sapiens, DU-145, Prostate cancer, read-out: GI%
Outline: as §1

HCC-2998 = test: NCI 60 single concentration growth inhibition; type: cell-based, human; details: Homo sapiens, HCC-2998, Colon cancer, read-out: GI%
Outline: as §1

HCT-15 = test: NCI 60 single concentration growth inhibition; type: cell-based, human; details: Homo sapiens, HCT-15, Colon cancer, read-out: GI%
Outline: as §1

HOP-92 = test: NCI 60 single concentration growth inhibition; type: cell-based, human; details: Homo sapiens, HOP-92, Non-small cell lung cancer, read-out: GI%
Outline: as §1

K-562 = test: NCI 60 single concentration growth inhibition; type: cell-based, human; details: Homo sapiens, K562, K-562, Leukemia, read-out: GI%
Outline: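 Single-dose screen at 10 µM across the NCI-60 panel, then five concentrations (10-fold or ½ log dilutions) for selected compounds. Cells in RPMI 1640, 5% FBS, 2 mM L-glutamine, preincubated 24 h, then drug exposure 48 h at 37 °C. TCA fixation, SRB stain read at 515 nm; percent growth calculated against time-zero and untreated controls.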

LOX IMVIL = test: NCI 60 single concentration growth inhibition; type: cell-based, human; details: Homo sapiens, Melanoma, read-out: GI%
Outline: as §1

NCI-H460 = test: NCI 60 single concentration growth inhibition; type: cell-based, human; details: Homo sapiens, NCI-H460, Non-small cell lung cancer, read-out: GI%
Outline: as §1

NCI-H522 = test: NCI 60 single concentration growth inhibition; type: cell-based, human; details: Homo sapiens, NCI-H522, Non-small cell lung cancer, read-out: GI%
Outline: as §1

OVCAR-4 = test: NCI 60 single concentration growth inhibition; type: cell-based, human; details: Homo sapiens, OVCAR-4, Ovarian cancer, read-out: GI%
Outline: as §1

SNB-19 = test: NCI 60 single concentration growth inhibition; type: cell-based, human; details: Homo sapiens, SNB-19, CNS cancer, read-out: GI%
Outline: as §1

SW-620 = test: NCI 60 single concentration growth inhibition; type: cell-based, human; details: Homo sapiens, SW-620, Colon cancer, read-out: GI%
Outline: as §1

TK-10 = test: NCI 60 single concentration growth inhibition; type: cell-based, human; details: Homo sapiens, TK-10, Renal cancer, read-out: GI%
Outline: as §1

U251 = test: NCI 60 single concentration growth inhibition; type: cell-based, human; details: Homo sapiens, U-251, U251, CNS cancer, read-out: GI%
Outline: as §1

[1] = tested on: NCI 60 cancer cell line panel; test: NCI 60 single concentration growth inhibition, panel mean; type: cell-based; details: Homo sapiens, mean over NCI 60 panel, read-out: Mean GI%
Description: The synthesized dichlorobenzimidazoles 10a–p were assayed for their influence on divers cancer cell lines according to the method presented in the Additional file A.
5. Screening of cytotoxic activity against a panel of sixty human tumor cell lines
The selected compounds by NCI were evaluated for their anticancer activity in a two-stage process. First, these compounds were screened against the full NCI 60 cell lines panel at a single high dose of 10 µM. Then, the output from the single dose screen is reported as a mean graph. […]
at five different minimal concentrations.
Assay protocol. The human tumor cell lines of the cancer screening panel are grown in RPMI 1640 medium containing 5% fetal bovine serum and 2 mM L-glutamine. For a typical screening experiment, cells are inoculated into 96 well microtiter plates in 100 µL at plating densities ranging from 5000 to 40,000 cells/well depending on the doubling time of individual cell lines. After cell inoculation, the microtiter plates are incubated at 37 °C, 5% CO 2, 95% air and 100% relative humidity for 24 h prior to addition of the experimental drugs.
After 24 h, two plates of each cell line are fixed in situ with TCA, to represent a measurement of the cell population for each cell line at the time of drug addition (Tz). The experimental drugs are solubilized in dimethyl sulfoxide at 400-fold the desired final maximum test concentration and stored frozen prior to use. At the time of drug addition, an aliquot of frozen concentrate is thawed and diluted to twice the desired final maximum test concentration with complete medium containing 50 µg/mL gentamicin. Additional four, 10-fold or ½ log serial dilutions are made to provide a total of five drug concentrations plus control.
Aliquots of […] of these different drug dilutions are added to the appropriate microtiter wells already containing […] of medium, resulting in the required final drug concentrations.
Following drug addition, the plates are incubated for an additional 48 h at 37 °C, 5% CO 2, 95% air, and 100% relative humidity. For adherent cells, the assay is terminated by the addition of cold TCA.
Cells are fixed in situ by the gentle addition of 50 µL of cold 50% (w/v) TCA (final concentration, 10% TCA) and incubated for 60 min at 4 °C. The supernatant is discarded, and the plates are washed five times with tap water and air dried. Sulforhodamine B (SRB) solution ([…]) at 0.4% (w/v) in 1% acetic acid is added to each well, and plates are incubated for 10 min at room temperature. After staining, unbound dye is removed by washing five times with 1% acetic acid and the plates are air dried. Bound stain is subsequently solubilized with 10 mM trizma base, and the absorbance is read on an automated plate reader at a wavelength of 515 nm. For suspension cells, the methodology is […]
the same except that the assay is terminated by fixing settled cells at the bottom of the wells by gently adding 50 µl of 80% TCA (final concentration, 16% TCA). Using the seven absorbance measurements [time zero, (Tz), control growth, (C), and test growth in the presence of drug at the five concentration levels (Ti)], the percentage growth is calculated at each of the drug concentrations […]
Percentage growth inhibition is calculated as: [(Ti Tz)/(C–Tz)] x 100 for concentrations for which Ti>/=Tz and [(Ti-Tz)/Tz] x 100 for concentrations for which Ti < Tz.
Three dose response parameters are calculated for each experimental agent. Growth […]
concentration resulting in a 50% reduction in the net protein increase (as measured by SRB staining) in control cells during the drug incubation. The drug concentration resulting in total growth inhibition (TGI) is calculated from Ti = Tz. […]
reduction in the measured protein at the end of the drug treatment as compared to that at the beginning) indicating a net loss of cells following treatment is calculated from [(Ti–Tz)/Tz] x 100 =
_50. Values are calculated for each of these three parameters if the level of activity is reached; […]

Row | Compound | inhibition at 10 µM (COLO 205) [%] | inhibition at 10 µM (DU-145) [%] | inhibition at 10 µM (HCC-2998) [%] | inhibition at 10 µM (HCT-15) [%] | inhibition at 10 µM (HOP-92) [%] | inhibition at 10 µM (K-562) [%] | inhibition at 10 µM (LOX IMVIL) [%] | inhibition at 10 µM (NCI-H460) [%] | inhibition at 10 µM (NCI-H522) [%] | inhibition at 10 µM (OVCAR-4) [%] | inhibition at 10 µM (SNB-19) [%] | inhibition at 10 µM (SW-620) [%] | inhibition at 10 µM (TK-10) [%] | inhibition at 10 µM (U251) [%] | inhibition at 10 µM [1] [%]
1 | COc1ccc(-c2nc3cc(Cl)c(Cl)cc3n2CC(=O)NN=Cc2cccc(OCC(=O)O)c2)cc1 [Compound 10e, 2-(3-((2-(2-(5,6-Dichloro-2-(4-methoxyphenyl)-1H-benzo[d]imidazol-1-yl)acetyl)hydrazono)methyl)phenoxy)acetic acid] | < 5 | < 5 | < 5 | < 5 | < 5 | < 5 | < 5 | < 5 | < 5 | < 5 | < 5 | < 5 | < 5 | < 5 | < 5
2 | COc1ccc(-c2nc3cc(Cl)c(Cl)cc3n2CC(=O)NN=Cc2ccc(OCC(=O)O)cc2)cc1 [Compound 10f, 2-(4-((2-(2-(5,6-Dichloro-2-(4-methoxyphenyl)-1H-benzo[d]imidazol-1-yl)acetyl)hydrazono)methyl)phenoxy)acetic acid] | < 5 | < 5 | < 5 | 6.73 | < 5 | < 5 | 8.41 | < 5 | < 5 | < 5 | < 5 | < 5 | < 5 | < 5 | < 5
3 | COC(=O)COc1cccc(C=NNC(=O)Cn2c(-c3ccc(OC)cc3)nc3cc(Cl)c(Cl)cc32)c1 [Compound 10g, Methyl-2-(3-((2-(2-(5,6-dichloro-2-(4-methoxyphenyl)-1H-benzo[d]imidazol-1-yl)acetyl)hydrazono)methyl)phenoxy)acetate] | < 5 | 110 | 44 | 21.4 | 5.5 | 21.3 | 19.1 | < 5 | 9.11 | < 5 | < 5 | < 5 | < 5 | < 5 | 14.6
4 | COC(=O)COc1ccc(C=NNC(=O)Cn2c(-c3ccc(OC)cc3)nc3cc(Cl)c(Cl)cc32)cc1 [Compound 10h, Methyl-2-(4-((2-(2-(5,6-dichloro-2-(4-methoxyphenyl)-1H-benzo[d]imidazol-1-yl)acetyl)hydrazono)methyl)phenoxy)acetate] | 51.5 | 158 | 142 | 40.3 | 7.02 | 31.4 | 39.5 | < 5 | 7.31 | < 5 | 8.19 | < 5 | < 5 | 10.1 | 36.6
5 | CCOC(=O)C(C)Oc1ccc(C=NNC(=O)Cn2c(-c3ccc(OC)cc3)nc3cc(Cl)c(Cl)cc32)cc1 (stereo not drawn) [Compound 10j, Ethyl-2-(4-((2-(2-(5,6-dichloro-2-(4-methoxyphenyl)-1H-benzo[d]imidazol-1-yl)acetyl) hydrazono)methyl)phenoxy)propanoate] | 8.58 | 85.2 | 15.4 | 37.1 | 15.2 | 41.3 | 18.4 | < 5 | 32.6 | 9.77 | 11.2 | < 5 | < 5 | 5.26 | 18.4
6 | COc1ccc(-c2nc3cc(Cl)c(Cl)cc3n2CC(=O)NN=Cc2ccc(OC)c(O)c2)cc1 [Compound 10k, 2-(5,6-Dichloro-2-(4-methoxyphenyl)-1H-benzo[d]imidazol-1-yl)-N'-(3-hydroxy-4-methoxybenzylidene)acetohydrazide] | 22.1 | 26.4 | 32.2 | 47.2 | 12 | 59.9 | 38.4 | 24.8 | 37.8 | 47.3 | 40.3 | 6.39 | 28 | 38 | 35.4
7 | COc1ccc(-c2nc3cc(Cl)c(Cl)cc3n2CC(=O)NN=Cc2ccc(O)c(OC)c2)cc1 [Compound 10l, 2-(5,6-Dichloro-2-(4-methoxyphenyl)-1H-benzo[d]imidazol-1-yl)-N'-(4-hydroxy-3-methoxybenzylidene)acetohydrazide] | < 5 | 31.8 | 18.2 | 51.5 | 40.1 | 58.1 | 38.5 | 31 | 23.5 | 52.9 | 37.3 | 9.29 | 16.2 | 25.8 | 34.6
